Source: the supplement of paper PMC4723716
Structures can show the parent of a compound that is named as a salt.

System: Plasmodium falciparum NF54 gametocytes
Details: 384, incubation time: 72 h
Protocol: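 Known antimalarials and MMV control compounds in dose response against each stage (I–V) […] The fitted EC50 is reported as IC50 in µM; '>' marks the top dose reached without a curve.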

[1] = gametocyte stage: Stage I Dose Response IC50 (µM), assay protocol: SaLSSA
[2] = gametocyte stage: Stage I Dose Response IC50 (µM), assay protocol: TSSA
[3] = gametocyte stage: Stage II Dose Response IC50 (µM), assay protocol: SaLSSA
[4] = gametocyte stage: Stage II Dose Response IC50 (µM), assay protocol: TSSA
[5] = gametocyte stage: Stage III Dose Response IC50 (µM), assay protocol: SaLSSA
[6] = gametocyte stage: Stage III Dose Response IC50 (µM), assay protocol: TSSA
[7] = gametocyte stage: Stage IV Dose Response IC50 (µM), assay protocol: SaLSSA
[8] = gametocyte stage: Stage IV Dose Response IC50 (µM), assay protocol: TSSA
[9] = gametocyte stage: Stage V Dose Response IC50 (µM), assay protocol: SaLSSA
[10] = gametocyte stage: Stage V Dose Response IC50 (µM), assay protocol: TSSA

SMILES | IC50 of gametocyte viability [1] [µM] | IC50 of gametocyte viability [2] [µM] | IC50 of gametocyte viability [3] [µM] | IC50 of gametocyte viability [4] [µM] | IC50 of gametocyte viability [5] [µM] | IC50 of gametocyte viability [6] [µM] | IC50 of gametocyte viability [7] [µM] | IC50 of gametocyte viability [8] [µM] | IC50 of gametocyte viability [9] [µM] | IC50 of gametocyte viability [10] [µM]
CCN(CC)CCCC(C)Nc1cc(OC)cc2cccnc12 (stereo not drawn) [Pamaquine (diethlyprimaquine)] | 1.68 | 1.67 | 1.4 | 2.87 | 2.41 | 5.15 | 2.82 | 5.28 | 2.53 | 9.38
CN(C)c1ccc2nc3ccc(=[N+](C)C)cc-3sc2c1 [Methylene Blue trihydrate] |  | 0.0222 |  | 0.0164 |  | 0.0181 |  | 0.0454 |  | 1.04
O=C1C(O)=C([C@H]2CC[C@H](c3ccc(Cl)cc3)CC2)C(=O)c2ccccc21 [Atovaquone] [listing 1 of 2 here] | > 12.5 |  | > 12.5 |  | > 12.5 |  | 2.37 |  | > 12.5 | 
C[C@@H]1CC[C@H]2[C@@H](C)C(=O)O[C@@H]3O[C@@]4(C)CC[C@@H]1[C@]32OO4 [Artemisinin] |  | 0.027 |  | 0.0188 |  | 0.0218 |  | 0.0322 |  | > 12.5
OC(c1cc(C(F)(F)F)nc2c(C(F)(F)F)cccc12)C1CCCCN1 (racemic) [Mefloquine (Racemic)] |  | 0.0569 |  | 0.117 |  | 0.127 |  | 2.08 |  | 5.77
CC(C)(N)CNC(=O)CC1CCC2(CC1)OOC1(O2)C2CC3CC(C2)CC1C3 (stereo not drawn) |  | 0.00821 |  | 0.00599 |  | 0.00837 |  | 0.00742 |  | > 12.5
COc1ncnc(NS(=O)(=O)c2ccc(N)cc2)c1OC [Sulfadoxine] | > 12.5 |  | > 12.5 |  | > 12.5 |  | > 12.5 |  | > 12.5 | 
Nc1ccc(S(=O)(=O)c2ccc(N)cc2)cc1 [Dapsone] | > 12.5 |  | > 12.5 |  | > 12.5 |  | > 12.5 |  | > 12.5 | 
CCCCN(CCCC)CCC(O)c1cc2c(Cl)cc(Cl)cc2c2cc(C(F)(F)F)ccc12 (stereo not drawn) [Halofantrine] [listing 1 of 2 here] |  | 0.00577 |  |  |  |  |  | > 12.5 |  | > 12.5
CC1Cc2c([nH]c3cc(F)c(F)cc23)C2(N1)C(=O)Nc1ccc(Cl)cc12 (stereo not drawn) [KAF246] | 0.00139 |  | 0.00186 |  | 0.0021 |  | 0.00177 |  | 0.00235 | 
CCN(CC)Cc1cc(Nc2ccnc3cc(Cl)ccc23)ccc1O [Amodiaquine] | 0.0118 | 0.0134 | 0.00579 | 0.0088 | 0.0961 | 0.107 | 2.46 | 5.4 | 1.78 | > 9.39
CC(=O)N(O)CCCCCNC(=O)CCC(=O)N(O)CCCCCNC(=O)CCC(=O)N(O)CCCCCN [Deferoxamine mesylate salt] | > 12.5 |  | > 12.5 |  | > 12.5 |  | > 12.5 |  | > 12.5 | 
CCCCN(CCCC)CCC(O)c1cc2c(Cl)cc(Cl)cc2c2cc(C(F)(F)F)ccc12 (stereo not drawn) [Halofantrine] [listing 2 of 2 here] | 0.00161 |  | 0.000896 |  | 0.0233 |  | 1.51 |  | 0.0075 | 
CO[C@H]1O[C@@H]2O[C@@]3(C)CC[C@H]4[C@H](C)CC[C@@H]([C@H]1C)[C@@]24OO3 [Artemether] | 0.0159 | 0.0183 | 0.00459 | 0.0125 | 0.00617 | 0.0175 | 0.019 | 0.0184 | > 12.5 | > 12.5
COc1cc(NC(C)CCCN)c2ncccc2c1 (stereo not drawn) [Primaquine] | 2.47 | 3.35 | 2.25 | 6.41 | 5.4 | 7.96 | 5.15 | 9.44 | 6.5 | > 11.3
O=C1C(O)=C([C@H]2CC[C@H](c3ccc(Cl)cc3)CC2)C(=O)c2ccccc21 [Atovaquone] [listing 2 of 2 here] |  | > 12.5 |  | > 12.5 |  | > 12.5 |  | > 12.5 |  | > 12.5
CC(C)(C)NCc1cc(Nc2ccnc3cc(Cl)ccc23)c2c(c1O)CCCC2 [Naphthoquine] |  | 0.0234 |  | 0.0128 |  | > 4.17 |  | > 4.17 |  | > 4.17
c1cc([C@H]2CC[C@]3(CC2)OO[C@]2(O3)C3CC4CC(C3)CC2C4)ccc1OCCN1CCOCC1 [OZ 439 mesylate] |  | 0.0102 |  | 0.01 |  | 0.00852 |  | 0.00553 |  | > 12.5
COc1ccc2nc3cc(Cl)ccc3c(Nc3cc(CN4CCCC4)c(O)c(CN4CCCC4)c3)c2n1 [Pyronaridine phosphate] | 0.0132 |  | 0.01 |  | 0.125 |  | 2.58 |  | 2.08 | 
COc1cc(Cc2cnc(N)nc2N)cc(OC)c1OC [Trimethoprim] | > 12.5 |  | > 12.5 |  | > 12.5 |  | > 12.5 |  | > 12.5 | 
C(CN1CCOCC1)Oc2ccc(cc2)[C@@H]3CC[C@@]4(CC3)OO[C@@]5(O4)[C@@H]6CC7C[C@@H](CC5C7)C6 [OZ 439 mesylate] | 0.0107 |  | 0.00536 |  | 0.00342 |  | 0.0019 |  | > 12.5 | 
CC(=O)N[C@@H](C(=O)O)C(C)(C)S [N-acetyl-D-penicillamine] | > 12.5 |  | > 12.5 |  | > 12.5 |  | > 12.5 |  | > 12.5 | 
C[C@H]1c2cccc(O)c2C(=O)C2=C(O)[C@]3(O)C(=O)C(C(N)=O)=C(O)[C@@H](N(C)C)[C@@H]3[C@@H](O)[C@@H]21 [Doxycyclin] | > 12.5 |  | > 12.5 |  | > 12.5 |  | > 12.5 |  | > 12.5 | 
CCC[C@@H]1C[C@@H](C(=O)N[C@@H]([C@H]2O[C@H](SC)[C@H](O)[C@@H](O)[C@H]2O)[C@H](C)Cl)N(C)C1 [clindamycin] | > 12.5 |  | > 12.5 |  | > 12.5 |  | > 12.5 |  | > 12.5 | 
C=C[C@H]1CN2CC[C@@H]1C[C@H]2[C@H](O)c1ccnc2ccc(OC)cc12 [Quinine sulfate dihydrate (coeff. 2)] | 0.44 |  | 0.496 |  | > 8.77 |  | > 12.5 |  | > 8.86 | 
C[C@H]1[C@H](OC(=O)CCC(=O)O)O[C@@H]2O[C@@]3(C)CC[C@H]4[C@H](C)CC[C@@H]1[C@@]24OO3 [Artesunate] | 0.00773 |  | 0.00351 |  | 0.0126 |  | 0.0491 |  | > 10.6 | 
C=C[C@H]1CN2CC[C@H]1C[C@@H]2[C@@H](O)c1ccnc2ccc(OC)cc12 [Quinidine] | 0.138 |  | 0.208 |  | > 9.17 |  | > 12.5 |  | > 11.8 | 
CCCCN(CCCC)CC(O)c1cc(Cl)cc2c1-c1ccc(Cl)cc1/C2=C/c1ccc(Cl)cc1 (stereo not drawn) [Lumefantrine] | 0.0128 |  | 0.0131 |  | 0.015 |  | 0.599 |  | 0.0523 | 
C[C@H]1[C@H](N2CCS(=O)(=O)CC2)O[C@@H]2O[C@@]3(C)CC[C@H]4[C@H](C)CC[C@@H]1[C@@]24OO3 [Artemisone] [listing 1 of 2 here] |  | 0.00264 |  | 0.00244 |  | 0.00605 |  | 0.00548 |  | > 7.85
C[C@H]1[C@H](N2CCS(=O)(=O)CC2)O[C@@H]2O[C@@]3(C)CC[C@H]4[C@H](C)CC[C@@H]1[C@@]24OO3 [Artemisone] [listing 2 of 2 here] | 0.00277 |  | 0.00176 |  | 0.00339 |  | 0.00421 |  | > 12.5 | 
